The text below walks through data of patent US7300793B2, “Method for preventing the adhesion of particles” (Evotec Technologies GmbH, priority 2001, dated 2007).

Data set [1] has as its system Jurkat-cells. In words: Cell adherence to polystyrene culture dishes in the presence of various substances, with trypan blue vitality check (Jurkat). As for the experimental part: (§1) 50 μl of the cell suspension described above were added.
(§2) The samples were incubated for 30 minutes at 37° C. The supernatant with non-adhered cells was removed and replaced by buffer. The adherence was qualitatively evaluated (refer to table 3). The cells in both supernatant and the wells were stained with trypanblue solution (0.2%, SIGMA Aldrich GmbH, Steinheim) in order to examine the vitality of the cells.

Data set [2] has as its system U937-cells. In words: Cell adherence to polystyrene culture dishes in the presence of various substances, with trypan blue vitality check (U937). The conditions noted are these: for U937 Adherence: 30 minutes at 37° C., polystyrene 24-well plate. As for the experimental part:
as §1, §2

For the substance Bovine serum albumin [BSA], the “Jurkat Adherence” value in data set [1] (0.1% in PBS, 30 minutes at 37° C., polystyrene 24-well plate) came out at 99. In addition, the “U937 Adherence” value in data set [2] (0.1% in PBS) was 999; in data set [2] (0.5% in PBS), 99.
Regarding polyethylene glycol 5,000 [PEG 5,000], in data set [1], the “Jurkat Vitality” value stood at 100%. Moreover, the “U937 Vitality” value in data set [2] came to 100%.
polyvinyl alcohol [PVA 30,000–70,000]: the “Jurkat Vitality” value in data set [1] was determined as 97%. Further, the “U937 Vitality” value in data set [2] is listed as 98%.
For polyvinyl pyrrolidone 15 [PVP 15], the “Jurkat Vitality” value in data set [1] came to 100%. Further, the “U937 Vitality” value in data set [2] is on record as 100%.
polyvinyl pyrrolidone 25 [PVP 25]: the “Jurkat Vitality” value in data set [1] is 100%. Further, the “U937 Vitality” value in data set [2] amounted to 100%.
